{
  "source": "patent US12337037B2",
  "about": "“Taxol conjugate compounds, pharmaceutical compositions comprising the same, and methods for their use” (N1 Life, Inc, priority 2021, dated 2025)",
  "key": {"[1]": {"system": "breast cancer MCF7/MBA-MD-231 cells", "experiment": "CCK-8 cytotoxicity / anti-proliferation assay, MCF7/MBA-MD-231", "type": "cell-based", "conditions": "all tested concentrations (500-4000 nM)", "method": "Cytotoxicity Assay—CCK8 Cancer Cells\nThe CCK-8 assay was applied to study the cytotoxicity of the peptide drug conjugates and their inhibition of proliferation of cancer cells. First, 2˜10×10^3 cells (depending on the rate of growth of different cell lines) with 100 μL, DMEM media were seeded in normal culture medium into each well of a 96-well plate. The cells were then cultured overnight at 37° C. with 4˜5% CO2. Different doses (4000, 2000, 1000, 500 nM for Hep3B, Hep G2 and MCF7/MBA-MD-231; 1000, 333.3, 100.0, 33.33, 3.333, 1.000, 0.333 nM for MCF7/ADR, 22Rv1, CNE1, HCT116, DLD-1) of Taxol and peptide drugs were added. After 48˜72 hour incubation, CCK-8 solution was added to each well. The cells were then incubated at 37° C. for 4 hours. The optical density was measured at 450/650 nm using a multiscan spectrometer (PerkinElmer's EnSpire Multilabel Plate Reader). The optical density is linearly proportional to the number of living cells in the sample: […]"}, "[2]": {"system": "human pancreatic cancer (BXPC-3) cells", "experiment": "Efficacy against pancreatic cancer", "type": "in vivo, mice", "conditions": "BXPC-3 model; 9.6 mg/kg QD5 (days 0, 5, 10); vs vehicle", "method": "Following the procedure described in Biological Example 5, mice were injected with human pancreatic cancer (BXPC-3) cells and treated with Compound 3 (9.6 mg/kg) QD5 (dosing on days 0, 5, and 10) to study the efficacy of Compound 3. […] FIG. 11 is a graph comparing the fluorescence area on Day 17 of the study of the mice administered vehicle and the mice administered Compound 3. FIG. 12 is a graph comparing the tumor weight of the mice administered vehicle and the mice administered Compound 3 on Day 17."}},
  "data": [
    {"smiles": "CC(=O)N[C@@H](CSSCCCC(=O)OC(C(=O)O[C@H]1C[C@@]2(O)[C@@H](OC(=O)c3ccccc3)[C@@H]3[C@]4(OC(C)=O)CO[C@@H]4C[C@H](O)[C@@]3(C)C(=O)[C@H](OC(C)=O)C(=C1C)C2(C)C)[C@@H](NC(=O)c1ccccc1)c1ccccc1)C(=O)N[C@H](CCCNC(=N)N)C(=O)N[C@H](CCCNC(=N)N)C(=O)N[C@H](CCCNC(=N)N)C(=O)N[C@H](CCCNC(=N)N)C(=O)N[C@H](CCCNC(=N)N)C(=O)N[C@H](CCCNC(=N)N)C(=O)N[C@H](CCCNC(=N)N)C(=O)N[C@H](CCCNC(=N)N)C(N)=O", "note": "(stereo partly drawn) [Compound 3, Ac-L-Cysteine (paclitaxel-4-mercaptobutanoate)-D-Arginine8-NH2]", "values": [
      {"measurement": "cancer cell inhibition compared to Compound 5 (FIG. 1)", "setting": "[1]", "value": "substantially superior to cancer cell inhibition compared to Compound 5 at all tested concentrations"},
      {"measurement": "fluorescence area of the tumor over the course of the study (FIG. 10)", "setting": "[2]", "value": "fluorescence area increased in the vehicle-administered mice to a greater degree over the course of the study compared to the Compound 3-administered mice"}
    ]}
  ]
}
